Experimental data reported in patent publication US7268155B2, “Photosensitizer conjugates for pathogen targeting” (The General Hospital Corporation, priority 1997, dated 2007).

Experiments:
[1] = system: HCPC-1 cells; assay: Phototoxicity to HCPC-1 cells after irradiation, MTT assay; assay type: cell-based, hamster; settings: 5 μM photosensitizer, light 630-710 nm, MTT 24 h after irradiation
Experimental: HCPC-1 cells, 2×10^4 in aliquots of 100 μl growth medium with 10% FCS, were seeded in 96-well plates and cultured for 24 h until 70% confluent. Six wells from each plate were incubated with 5 μM of each photosensitizer and irradiated using the conditions described in Example 3. After illumination, cells were incubated with fresh medium at 37° C. for 24 h. Control cells were incubated under the conditions as in Example 3. Cell viability was determined 24 h after irradiation using the MTT-microculture tetrazolium assay, a method that assesses dehydrogenase activity in mitochondria of live cells (Mosmann T. J. Immunol. Methods 65, 55-63, 1983), and survival fractions were calculated as 570 nm absorbance of treated cells divided by that of unirradiated controls.

[2] = system: P. gingivalis; assay type: cell-based, Porphyromonas gingivalis
Experimental: In order to establish the effectiveness and selectivity of these conjugates for killing bacteria while sparing mammalian cells, the three conjugates were compared to two widely used clinical photosensitizers, Photofrin II and benzoporphyrin derivative (BPD) (QLT Phototherapeutics Inc., Vancouver, BC). Photosensitizer bulk solid was dissolved in DMSO at 1 mM and diluted in TSB.
Suspensions of P. gingivalis cells (10^8/ml) were incubated in duplicate in the dark at room temperature for 1 min with 5 μm chlorin e6 equivalent of each conjugate, with Photofrin II, and with BPD. Cells were centrifuged, washed once with sterile PBS, and 1 ml fresh TSB was added. In the Example here, the ratios of uptake of chlorin e6 per mg cell protein in P. gingivalis and HCPC-1 cells for the cationic, anionic and neutral conjugates were 46:1, 60:1 and 22:1, respectively.
Bacterial suspensions were added to wells of 12-well plates, and were irradiated in the dark at room temperature using a light emitting diode array which emitted light with wavelengths from 630-710 nm, spanning the absorbance maxima of these photosensitizer compositions. Wells were exposed from below, using fluences from 0 to 25 J/cm^2 at an irradiance of 65 mW/cm^2. Plates were covered during illumination to maintain sterility of the cultures. After illumination of the appropriate wells, serial dilutions of the contents of each well were prepared in TSB, and duplicate 100 μl aliquots were spread on the surfaces of blood agar plates. Survival fractions in each well were calculated by counting the colonies on the plates and dividing by number of colonies from unirradiated controls incubated with photosensitizer in the dark at room temperature for periods equal to irradiation times. Other controls were: bacteria treated neither with photosensitizer nor light, and incubated at room temperature in the dark, and cells exposed to light in the absence of photosensitizer.

[3] = system: P. gingivalis; settings: cited from earlier work
[4] = system: Porphyromonas gingivalis 381; assay: Uptake of chlorin e6 conjugates by P. gingivalis cells (fluorescence of cell extract per mg cell protein); assay type: cell-based; settings: P. gingivalis 10^9 cells/ml, 1 min incubation, at each concentration (1, 5 and 10 μm chlorin e6 equivalent)
Experimental: Porphyromonas gingivalis 381, a Gram negative bacterium and one of the most common species in dental plaque, was maintained by weekly subculture in Trypticase Soy Agar (TSA) with 1% hemin, 1% vitamin K and 5% sheep blood. For experimental purposes, the organism was grown anaerobically in a chamber with 80% N2, 10% CO2 at 35° C. for 48 h, harvested by centrifugation and resuspended in Trypticase Soy Broth (TSB) with 1% hemin and 1% vitamin K. Cells were dispersed by sonication and repeated passage through Pasteur pipettes. Cell numbers were measured in a spectrophotometer (at wavelength 600 nm, in which an O.D. of 1 yields 10^8 cells/ml) using one ml tubes, to obtain the appropriate number of bacteria for each experiment (10^9 cells/ml for uptake studies and 10^8 cells/ml for irradiation studies). […]
Fluorescence of each cell extract was measured on a spectrofluorimeter (model FluoroMax, SPEX Industries, Edison, N.J.). The excitation wavelength was 400 nm and emission spectra of cell suspensions were recorded from 580 to 700 nm. The protein content of each cell extract was determined by a modified Lowry method (Markwell M. A. et al. Anal. Biochem. 87:206, 1978) using bovine serum albumin dissolved in 0.1 M NaOH/1% SDS as a protein standard to construct calibration curves. Results were expressed as mol chlorin e6 taken up per mg cell protein.

| Substance | killing of HCPC-1 cells (in words) [1] | bacteria killed / reduction in viability of P. gingivalis [2] | also measured |
| --- | --- | --- | --- |
| benzoporphyrin derivative [BPD, reference compound] | killed HCPC-1 cells |  | killing of P. gingivalis (in words) ([2]; 1 min incubation, light 630-710 nm, fluences 0 to 25 J/cm^2): not P. gingivalis |
| histatin-5 |  |  | number of molecules that bind P. gingivalis [3]: About 3,600 molecules; Kd ([3]; read-out: Kd of binding to P. gingivalis): ~1000 nM |
| polylysine chlorin e6 [polylysine-chlorin e6] |  | 99.9% | HCPC-1 cells killed [1]: less than 2%; accumulation of the cationic conjugate compared to the anionic and neutral conjugates [4]: 2 times |
| polylysine chlorin e6 acetylated [polylysine-chlorin e6-ac] | not HCPC-1 cells | over 90% |  |
| polylysine chlorin e6-succinylated [polylysine-chlorin e6-succ] |  | 66% |  |
